Where only a bound is given, the exact number is not on record here.

The test system of assay [1] is 293T-NFAT-luciferase cells. Briefly: Calcineurin inhibition, 293T-NFAT-luciferase reporter assay. Format: cell-based. The conditions noted are these: 293T-NFAT-luciferase cells co-treated with 100 ng/ml PMA and 1 μM Ionomycin, 24 hours after treatment; read-out: NFAT-luc IC50. The protocol: NFAT-luciferase reporter line was established by transfecting NFAT-luciferase/pTranslucent (Panomics #LR0050) and Puromycin-resistance plasmid together into 293T cells.
293T-NFAT-luciferase cells were plated to 384-well plate at 10000 cells in 32 μl DMEM plus 10% FBS at day 0. Cells were treated with different doses of compounds at day 1. Half an hour after compound treatment, 293T-NFAT-luciferase cells were co-treated with 100 ng/ml PMA (PHORBOL 12-MYRISTATE 13-ACETAT, Sigma, catalog #P8139-1MG) and 1 μM Ionomycin (Sigma, catalog #10634-1MG). Bright-Glo™ Luciferase Assay (Promega, catalog # E2650) was performed with EnVision plate reader (PerkinElmer) 24 hours after treatment at day 2.

The subject of assay [2] is C2C12-IDBRE-luciferase cells. Nature of the assay: BMP activity, C2C12-IDBRE-luciferase reporter assay. The conditions noted are these: 24 hours after treatment, 100% activity = luminescence 200% of DMSO control, read-out: Qualified absolute AC50. Format: cell-based. The protocol:
C2C12-IDBRE-luciferase reporter line was established by infecting C2C12 cells with lentiviruses with IDBRE-luciferase pLenti6 plasmid with Blasticidin resistance.
C2C12-IDBRE-luciferase cells were plated to 384-well plate at 5000 cells in 36 μl DMEM plus 10% FBS at day 0. Cells were treated with different doses of compounds at day 1. Bright-Glo™ Luciferase Assay (Promega, catalog # E2650) was performed with EnVision plate reader (PerkinElmer) 24 hours after treatment at day 2. 0% activity is equal to DMSO control. 100% activity means Luminescence reading for a compound is 200% of luminescence reading of DMSO control. The formula to calculate the activity is: 100*(Luminescence_compound−Luminescence_DMSO)/Luminescence_DMSO

Consider `CC[C@H]1C(=O)C[C@H](O)[C@@H](C)[C@@H](/C(C)=C/[C@@H]2CC[C@@H](O)[C@H](OC)C2)OC(=O)[C@@H]2CCCCN2C(=O)C(=O)[C@]2(O)O[C@H]([C@@H](OC)C[C@@H](C)C[C@]3(C)O[C@@H]13)[C@@H](OC)C[C@H]2C` [Compound C], for which, in assay [1], the IC50 turned out to be 33 nM. In addition, in assay [2], the AC50 was found to be 201 nM.
For the molecule `C=CC[C@@H]1/C=C(\C)C[C@H](C)C[C@H](OC)[C@H]2O[C@@](O)(C(=O)C(=O)N3CCCC[C@H]3C(=O)O[C@H](/C(C)=C/[C@@H]3CC[C@@H](O)[C@H](OC)C3)[C@H](C)[C@@H](O)CC1=O)[C@H](C)C[C@@H]2OC` [FK-506, reference compound], in assay [1], the IC50 worked out at 0.05 nM. In addition, in assay [2], the AC50 turned out to be 24 nM.
In the case of `CO[C@H]1C[C@@H](C)C/C(C)=C/[C@@H](C/C=C/C2(O)COC2)C(=O)C[C@H](O)[C@@H](C)[C@@H](/C(C)=C/[C@@H]2CC[C@@H](O)[C@H](OC)C2)OC(=O)[C@@H]2CCCCN2C(=O)C(=O)[C@]2(O)O[C@H]1[C@@H](OC)C[C@H]2C` [Compound A], in assay [1], the IC50 was greater than 50000 nM. Moreover, the AC50 in assay [2] stood at 91 nM.
`CC[C@H]1C(=O)C[C@H](O)[C@@H](C)[C@@H](/C(C)=C/[C@@H]2CC[C@@H](O)[C@H](OC)C2)OC(=O)[C@@H]2CCCCN2C(=O)C(=O)[C@]2(O)O[C@H]([C@@H](OC)C[C@@H](C)C[C@@]3(C)O[C@H]13)[C@@H](OC)C[C@H]2C` [Compound B]: the IC50 in assay [1] is greater than 50000 nM. Besides, the AC50 in assay [2] was 24 nM.

The values above are taken from patent US10259827B2, “BMP potentiators” (NOVARTIS AG, priority 2016, dated 2019).
